Data set [1] deals with human cord blood CD34+ cells. The experiment in a line: Bone marrow stem cell (hematopoietic trilineage) colony formation assay. The format is cell-based. The settings on record: for Mean Number of Colonies, % of Control, 14 days / Mean Number of Colonies, % of Control, 8 days: normal bone marrow, compound at 40 µM, N = 2; for Mean Number of Colonies, % of Control, 8 days: total colonies at 8 days. As to the method: (§1) Human hematopoietic stem cell trilineage colony formation assays were performed as previously described by us. Briefly, human cord blood CD34+ cells (catalog #: 70008.5) were purchased from StemCell Technology Inc. and seeded at 1 × 10^4 cells per 35 mm dish. Cells were cultured in MethoCult™ Express (StemCell Technologies, Inc. (Vancouver, BC, Canada)) semisolid media, per the manufacturer’s instructions, in the presence of compound or vehicle (for controls). Compounds were added at final concentrations matching those used in the initial growth assay screens. At eight days, colonies (i.e., groups of ≥10 cells) were counted. At fourteen days, individual colonies of erythroid burst-forming units (BFU-E), colony-forming unit granulocyte–macrophage (CFU-GM), and colony-forming unit granulocyte, erythrocyte, monocyte, and megakaryocyte (CFU-GEMM) were identified based on the manufacturers’ morphologic characterization criteria. Assays were run in replicates of N = 2, and some were run in replicates of N = 4, as denoted. The mean number of colonies was then determined and expressed as the percentage of controls. The effect of each compound on inhibiting the growth of cancer cells relative to its toxic effects on normal bone marrow was evaluated. This was carried out by comparing colonies at 8 days for each cancer cell line to that of bone marrow. This information was used to calculate the efficacy ratio, as follows: efficacy ratio = (percent of remaining cancer cell colonies)/(percent of remaining bone marrow colonies). This was performed for all compounds at 40 µM and for selected compounds at 5.7 µM, as denoted. For compounds nominated for second-level screens, bone marrow colony formation assays were also repeated. Compounds were added at final concentrations matching those used in the initial screens.
In parallel with measuring growth inhibition of cancer cell growth, we measured the effect on human hematopoietic stem cells. Hematopoietic stem cells reside in the bone marrow and are the source of mature cells present in blood. Bone marrow is one of the most sensitive organs in the body to drug toxicity, and this is especially so for anticancer drugs, where bone marrow toxicity can approach 100% [78, 79, 80]. Bone marrow toxicity was measured by performing hematopoietic colony formation assays on human CD34+ stem cells. The stem cell nature of this assay permitted the assessment of trilineage colony formation: granulocytic (white blood cells), erythrocytic (red blood cells), and megakaryocytic (platelets), measured by the formation of CFU-GM, BFU-E, and CFU-GEMM colonies, respectively. Two measurements were taken. First, total colonies at eight days were measured, thereby matching the eight-day timeframe of cancer cell colony formation assays. Second, at fourteen days, individual colonies had differentiated, permitting quantification of each lineage.

Data set [2] has as its system breast, prostate, colon, or lung cancer cell lines. The data set is described as follows: Eight-day colony formation assays, summary across the cancer cell line panel. The format is cell-based, human. Particulars: for efficacy at concentrations below 40 µM (in words): 8-day colony formation. As to the method: Initial colony formation screening assays were conducted on all acquired compounds and examined at five different compound concentrations. Those meeting efficacy criteria underwent a second-level screen examining nine different compound concentrations. Eight-day colony formation assays of cancer cells were performed as described by us. Briefly, 0.5–1.0 × 10^3 cells were seeded into each well of a 12-well plate. Twenty-four hours later, the compound was added at the following final concentrations: 0 (DMSO-only control), 0.017, 0.12, 0.82, 5.7, and 40 µM. For each concentration, there were N = 2 replicates, i.e., 2 wells. Eight days later, plates were stained with trypan blue, visualized under light microscopy, and groups of three or more cells were scored as colonies. The mean number of colonies was then determined and expressed as the percentage of controls. Second-level screens were performed on compounds inhibiting colony formation by greater than 50% at 40 µM in at least two cell lines. Second-level assays used the following final concentrations of compound: 0 (DMSO only), 0.0061, 0.018, 0.05, 0.16, 0.49, 1.48, 4.44, 13.33, and 40 µM. All compounds were stored under desiccated conditions in a sealed container at minus 20 °C upon arrival. One day prior to use, they were dissolved in DMSO, stored at minus 20 °C as stock solutions, thawed just prior to use, and not reused.
as §1
We sought to identify compounds that would inhibit the growth of cancer cells, but that also did so selectively. Inhibition of cancer cell growth is a highly sought after attribute of anticancer agents. This was assessed by measuring the ability of a compound to inhibit cell growth in eight-day colony formation assays and examining concentrations ranging from 0.017 to 40 µM. Breast, colon, lung, and prostate cancer are four of the most common types of cancer in the United States, are major causes of cancer cell death, and were examined. […]

The next data set relates to HT29. The experiment in a line: Eight-day colony formation assay, colon cancer HT29. The format is cell-based, human. The settings on record: 0.82 µM. As to the method:
Initial colony formation screening assays were conducted on all acquired compounds and examined at five different compound concentrations. Those meeting efficacy criteria underwent a second-level screen examining nine different compound concentrations. Eight-day colony formation assays of cancer cells were performed as described by us. Briefly, 0.5–1.0 × 10^3 cells were seeded into each well of a 12-well plate. Twenty-four hours later, the compound was added at the following final concentrations: 0 (DMSO-only control), 0.017, 0.12, 0.82, 5.7, and 40 µM. For each concentration, there were N = 2 replicates, i.e., 2 wells. Eight days later, plates were stained with trypan blue, visualized under light microscopy, and groups of three or more cells were scored as colonies. The mean number of colonies was then determined and expressed as the percentage of controls. […]
In addition to screens, eight-day colony formation assays were conducted for certain experiments, as denoted. […] The IC50 values were calculated using nonlinear regression analysis. […] The IC50 values were determined using the dose–response inhibition function. […]
Human hematopoietic stem cell trilineage colony formation assays were performed as previously described by us. […] At eight days, colonies (i.e., groups of ≥10 cells) were counted. […] The mean number of colonies was then determined and expressed as the percentage of controls. […]

For the next data set, the system named is NCI-60 cell lines. The data set is described as follows: NCI-60 cell line screen. The data set is classed as cell-based, human. The settings on record: 48 h at 10 µM. Here is the method:
The above findings support the importance of Dxr2 and FolC2 sites, and of Dxr2-017 and FolC2-001 compounds, respectively. The NCI-60 cell line screen evaluates compound growth inhibition and cell toxicity in a highly standardized manner across 60 different cell lines. Dxr2-017 and FolC2-001 were evaluated in this assay (Figure S6). NCI-60 screens evaluate cells treated for 48 h at 10 µM with a given compound. […] Of high interest, in the NCI-60 screen, Dxr2-017 had relatively high activity against melanoma cell lines, inducing cell death in five cell lines ranging from 25% to 65%, and inhibiting growth in four cell lines ranging from 76% to 96%. Its impact on cell death represented the most striking relative difference in response across cell lines.

On to `Cc1nnsc1C(=O)OCCCn1c(=O)[nH]c2ccccc21` [Dxr2-001], for which, in data set [1], the “Mean Number of Colonies, % of Control, 14 days” value is reported as 93 % of Control and the “Mean Number of Colonies, % of Control, 8 days” value is 109 % of Control.
Turning to `O=C(CCc1c[nH]c2ccccc12)N1CCSc2ccccc21` [FolC2-005], in data set [1], the “Mean Number of Colonies, % of Control, 14 days” value was 101 % of Control and the “Mean Number of Colonies, % of Control, 8 days” value is 105 % of Control. The “efficacy at concentrations below 40 µM (in words)” value in data set [2] is “A similar phenomenon was observed”.
Take `Cc1[nH]c(=O)[nH]c1C(=O)CCCCC(=O)O` [EPSP-023]: in data set [1], the “Mean Number of Colonies, % of Control, 14 days” value is recorded as 114 % of Control and the “Mean Number of Colonies, % of Control, 8 days” value is on record as 94 % of Control.
As for `O=C(Cc1n[nH]c(=O)c2ccccc12)Nn1cnc2ccccc21` [TYLT-001], in data set [1], the “Mean Number of Colonies, % of Control, 14 days” value is listed as 103 % of Control and the “Mean Number of Colonies, % of Control, 8 days” value is listed as 117 % of Control.
Regarding `O=C(COC(=O)c1cccs1)c1ccc2[nH]c(=O)[nH]c2c1` [TYLT-003], in data set [1], the “Mean Number of Colonies, % of Control, 14 days” value is 94 % of Control and the “Mean Number of Colonies, % of Control, 8 days” value was 97 % of Control.
With `O=c1[nH]cc(F)c(=O)[nH]1` [Compound 5FU, 5-fluorouracil, reference compound], the figures for the “effect on bone marrow colony formation (in words)” value in data set [1] (0.82 µM), in data set [1] (5.7 µM) and in data set [1] (40 µM) were “no effect on bone marrow”, “profound suppressive effects” and “completely suppressed colony formation”, respectively. For the same molecule, in data set [1] (5.7 µM, 8 days), the “hematopoietic colony formation, % of the control” value is 38 % of the control. Also, in the data set on HT29, the “efficacy ratio (cancer cell colonies / bone marrow colonies, 8 days)” value amounted to 0.82.
For the molecule `O=C(Cn1c(=O)oc2ccccc21)N1CCn2c1nc1ccccc12` [FolC2-001], in data set [1], the “Mean Number of Colonies, % of Control, 14 days” value is recorded as 87 % of Control and the “Mean Number of Colonies, % of Control, 8 days” value is on record as 108 % of Control. In addition, the “activity in the NCI-60 screen (in words)” value in the data set with NCI-60 cell lines was “against H226”. Besides, in data set [2] (40 µM, 8 days), the “efficacy ratio, mean ± SEM over cell lines with ratio below 0.5” value was determined as 0.29 ± 0.09 and the “number of cell lines with efficacy ratio below 0.5” value is “five”. Moreover, the “efficacy at concentrations below 40 µM (in words)” value in data set [2] is on record as “rapidly dropped off below 40 µM”.
Consider `O=C(Nc1nnn[nH]1)c1cc(-c2ccccc2)nc2ccccc12` [PRT-051], for which, in data set [1], the “Mean Number of Colonies, % of Control, 14 days” value is 119 % of Control and the “Mean Number of Colonies, % of Control, 8 days” value is 93 % of Control.
On the same counts, the results for `c1ccc(CCc2n[nH]c(-c3ccccn3)n2)cc1` [FolC1-031] are 85 % of Control and 80 % of Control.

Values taken from paper PMC11429909, “Protein Structure Inspired Discovery of a Novel Inducer of Anoikis in Human Melanoma” (Cancers, 2024).
